{"source": "patent US12357652B2", "about": "“Formulations of phosphoramidate derivatives of nucleoside drugs” (priority 2015, dated 2025)", "key": {"[1]": {"details": "cited from earlier work"}, "[2]": {"experiment": "NUC-7738 concentrate mixed with Tween 80 and added to saline, checked by eye for precipitation; assay and purity after 48 h", "format": "physicochemical", "procedure": "50 µL of a 100 mg/mL concentrate of NUC-7738 (mixture of diastereoisomers) in a range of solvents (DMA, DMSO, NMP, ethanol, benzyl alcohol) was mixed with 50 µL of Tween® 80 and added to 1.150 mL saline and the resultant solutions were checked by eye for precipitation of NUC-7738. Similarly a 50 µL concentrate of NUC-7738 (mixture of diastereoisomers) in Tween® 80 was mixed with 50 µL water for injection and then added to 1.150 mL saline.\n(§1) Even a solubiliser is not effective, in the absence of a polar aprotic solvent, at retaining NUC-7738 in solution in aqueous conditions. The solutions prepared above were assayed for NUC-7738 content and purity on being formed and also after 48 h. […] In a further experiment, the […] concentration of NUC-7738 in solvents that could be diluted with saline without precipitation was determined. Solutions of NUC-7738 (mixture of diastereoisomers) at various concentrations in NMP, DMSO and DMA were prepared and 100 µL of the solutions were added to 2.40 mL saline."}, "[3]": {"experiment": "NUC-7738 solutions in NMP, DMSO, DMA diluted with saline, observed for precipitation", "format": "physicochemical", "procedure": "as §1"}, "[4]": {"experiment": "Solubility of NUC-7738 in a range of solvents", "format": "physicochemical"}, "[5]": {"details": "solutions of Table 8, after 48 h versus on being formed"}}}
{"smiles": "C[C@H](NP(=O)(OC[C@H]1O[C@@H](n2ccc(N)nc2=O)C(F)(F)[C@@H]1O)Oc1ccccc1)C(=O)OCc1ccccc1", "note": "(stereo partly drawn) [NUC-1031, 2′-deoxy-2′,2′-difluoro-D-cytidine-5′-O-[phenyl (benzoxy-L-alaninyl)] phosphate]", "values": [{"measurement": "Stability (to precipitation and to degradation)", "setting": "[1]; S-isomer alone or mixture of R and S epimers at 4, 8 and 10 mg/mL, 48 hours after dilution in 0.45% and 0.9% saline, pH 4.5, 6.0 and 7.0, not stirred", "result": "stable"}, {"measurement": "Osmolarity", "setting": "[1]; all of the NUC-1031 solutions", "result": "acceptable for peripheral administration"}]}
{"smiles": "C[C@H](NP(=O)(OC[C@@H]1C[C@@H](O)[C@H](n2cnc3c(N)ncnc32)O1)Oc1ccccc1)C(=O)OCc1ccccc1", "note": "(stereo partly drawn) [NUC-7738, 3′-deoxyadenosine-5′-O-[phenyl(benzyloxy-L-alaninyl)] phosphate]", "values": [{"measurement": "Appearance", "setting": "[2]; 100 mg/mL concentrate in BnOH 50 + TW80 50 + Saline 1150", "result": "White precipitate, milky solution"}, {"measurement": "Appearance", "setting": "[2]; 100 mg/mL concentrate in DMA 50 + TW80 50 + Saline 1150", "result": "Clear and limpid solution"}, {"measurement": "Appearance", "setting": "[2]; 100 mg/mL concentrate in DMSO 50 + TW80 50 + Saline 1150", "result": "Clear and limpid solution"}, {"measurement": "Appearance", "setting": "[2]; 100 mg/mL concentrate in EtOH 50 + TW80 50 + Saline 1150", "result": "White precipitate, milky solution"}, {"measurement": "Appearance", "setting": "[2]; 100 mg/mL concentrate in NMP 50 + TW80 50 + Saline 1150", "result": "Clear and limpid solution"}, {"measurement": "Appearance", "setting": "[2]; concentrate in TW80 50 + WFI 50 + Saline 1150", "result": "White precipitate, milky solution"}, {"measurement": "Assay content", "setting": "[2]; [5]", "result": "substantially unchanged"}, {"measurement": "Purity", "setting": "[2]; [5]", "result": "substantially unchanged"}, {"measurement": "Appearance", "setting": "[3]; DMA 25 mg/ml concentrate 100 + Saline 2400", "result": "White insoluble precipitate from the first drop"}, {"measurement": "Appearance", "setting": "[3]; DMSO 25 mg/ml concentrate 100 + Saline 2400", "result": "White precipitate after addition of 100 μL"}, {"measurement": "Appearance", "setting": "[3]; DMSO 50 mg/ml concentrate 100 + Saline 2400", "result": "White insoluble precipitate from the first drop"}, {"measurement": "Appearance", "setting": "[3]; DMSO 100 mg/ml concentrate 100 + Saline 2400", "result": "White insoluble precipitate from the first drop"}, {"measurement": "Appearance", "setting": "[3]; NMP 25 mg/ml concentrate 100 + Saline 2400", "result": "Clear and limpid solution"}, {"measurement": "Appearance", "setting": "[3]; NMP 50 mg/ml concentrate 100 + Saline 2400", "result": "White insoluble precipitate from the first drop"}, {"measurement": "Appearance", "setting": "[3]; NMP 100 mg/ml concentrate 100 + Saline 2400", "result": "White insoluble precipitate from the first drop"}, {"measurement": "Solubility", "setting": "[4]; 5% Tween in water", "result": "<11.8", "unit": "mg/mL"}, {"measurement": "Solubility", "setting": "[4]; DMA", "result": ">667", "unit": "mg/mL"}, {"measurement": "Solubility", "setting": "[4]; DMSO", "result": ">667", "unit": "mg/mL"}, {"measurement": "Solubility", "setting": "[4]; Ethanol", "result": ">667", "unit": "mg/mL"}, {"measurement": "Solubility", "setting": "[4]; Heptane", "result": "<12", "unit": "mg/mL"}, {"measurement": "Solubility", "setting": "[4]; NMP", "result": ">667", "unit": "mg/mL"}, {"measurement": "Solubility", "setting": "[4]; Propylene Glycol", "result": ">667", "unit": "mg/mL"}, {"measurement": "Solubility", "setting": "[4]; isopropylacetate", "result": "<9", "unit": "mg/mL"}, {"measurement": "Solubility", "setting": "[4]; tbutylmethylether", "result": "<11", "unit": "mg/mL"}]}
